The source of these data is patent US20220324835A1 (Nurix Therapeutics, Inc., priority 2018, published 2022).

A value given as a limit tells only on which side of the number the result lay.

Experiment [1] relates to T-cell. Kind of experiment: IL-2 secretion from T-cells co-stimulated with anti-CD3 and anti-CD28 antibody (Biological Example 2). It is filed as cell-based, human. The following applies: Homo sapiens, T-cell, fold change over baseline, primary human total T-cells, read-out: IL-2 secretion Anti-CD3/Anti-CD28 stimulation; for fold induction at 0.3 µM: 0.3 μM Cbl-b inhibitor; for fold induction at 1 µM: 1 μM Cbl-b inhibitor; for fold induction at 4 µM: 4 μM Cbl-b inhibitor. In a few lines:
(§1)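 T-cells were stimulated with anti-CD3 antibody alone or with anti-CD28 antibody, in the presence or absence of Cbl-b inhibitor. IL-2 secretion or CD25 surface staining was measured, and values expressed as fold over the uninhibited baseline […].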

Experiment [2] deals with T-cell. Kind of experiment: CD25 cell surface staining on T-cells co-stimulated with anti-CD3 and anti-CD28 antibody (Biological Example 2). It is filed as cell-based, human. The following applies: Homo sapiens, T-cell, fold change over baseline, primary human total T-cells, read-out: CD25 staining Anti-CD3/Anti-CD28 stimulation; for fold induction at 0.3 µM: 0.3 μM Cbl-b inhibitor; for fold induction at 1 µM: 1 μM Cbl-b inhibitor; for fold induction at 4 µM: 4 μM Cbl-b inhibitor. In a few lines:
as §1

Experiment [3] has as its target Cbl-b (Homo sapiens, UniProt Q13191). Kind of experiment: Cbl-b activity assay (Cbl-b inhibition assay), TR-FRET of Cbl-b interaction with UbcH5B-Ub. Type of experiment: biochemical. The following applies: assay buffer with 100 mM NaCl, 60 nM Src kinase; read-out: Cbl-b activity IC50. In a few lines:
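UbcH5B (C85K) conjugated to N-terminally Bodipy-Fluorescein-labeled ubiquitin served as the fluorescent partner. After compound preincubation, Src kinase (60 nM) with 1 mM ATP and 5 mM MgCl2 (final) was added for 1.5 h, followed by a further 1 h incubation. Some values were obtained with 50 mM NaCl and 30 nM Src.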

The IC50 is the midpoint of a concentration-inhibition curve.

Sequence of Cbl-b (Q13191 36-427): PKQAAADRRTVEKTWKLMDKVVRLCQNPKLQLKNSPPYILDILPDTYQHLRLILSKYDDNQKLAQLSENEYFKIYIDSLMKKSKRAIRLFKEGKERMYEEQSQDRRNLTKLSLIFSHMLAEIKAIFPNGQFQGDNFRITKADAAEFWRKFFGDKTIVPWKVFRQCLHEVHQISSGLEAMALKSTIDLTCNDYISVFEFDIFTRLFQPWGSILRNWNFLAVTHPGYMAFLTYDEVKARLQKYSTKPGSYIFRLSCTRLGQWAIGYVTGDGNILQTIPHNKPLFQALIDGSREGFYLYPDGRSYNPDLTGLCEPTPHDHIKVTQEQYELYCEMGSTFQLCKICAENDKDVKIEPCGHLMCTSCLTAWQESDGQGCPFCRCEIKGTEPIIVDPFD

Regarding `C[C@H](Sc1nncn1C)c1ccnc(NC(=O)c2cc(C3CC3)cc(C(F)(F)F)n2)c1` [Compound 104, (S)-4-cyclopropyl-N-(4-(1-((4-methyl-4H-1,2,4-triazol-3-yl)thio)ethyl)pyridin-2-yl)-6-(trifluoromethyl)picolinamide], in experiment [1], the fold induction at 0.3 µM fell in the range of 1.01 to 2.5, the fold induction at 1 µM was 1.01 to 2.5 and the fold induction at 4 µM lay within 1.01 to 2.5. In addition, in experiment [2], the fold induction at 0.3 µM is less than 1, the fold induction at 1 µM was less than 1 and the fold induction at 4 µM fell in the range of 1.01 to 1.3. In addition, the IC50 in experiment [3] is 301 to 1000 nM.

On to `C[C@H](Sc1nncn1C)c1ccnc(NC(=O)c2cc(Cl)cc(C(F)(F)F)n2)c1` [Compound 105, (S)-4-chloro-N-(4-(1-((4-methyl-4H-1,2,4-triazol-3-yl)thio)ethyl)pyridin-2-yl)-6-(trifluoromethyl)picolinamide], for which, in experiment [1], the fold induction at 0.3 µM is 1.01 to 2.5, the fold induction at 1 µM was 1.01 to 2.5 and the fold induction at 4 µM is less than 1. Moreover, in experiment [2], the fold induction at 0.3 µM was 1.01 to 1.3, the fold induction at 1 µM is 1.01 to 1.3 and the fold induction at 4 µM was less than 1. In addition, the IC50 in experiment [3] was in the range of 301 to 1000 nM.

For `Cc1ccc(C(=O)Nc2cc([C@H](C)Sc3nncn3C)ccn2)nc1C1CC1` [Compound 113, (S)-6-cyclopropyl-5-methyl-N-(4-(1-((4-methyl-4H-1,2,4-triazol-3-yl)thio)ethyl)pyridin-2-yl)picolinamide], in experiment [1], the fold induction at 0.3 µM was 2.51 to 5, the fold induction at 1 µM lay in the range of 2.51 to 5 and the fold induction at 4 µM lay within 5 to 7.5. For the same molecule, in experiment [2], the fold induction at 0.3 µM is less than 1, the fold induction at 1 µM was less than 1 and the fold induction at 4 µM lay within 1.01 to 1.3. Further, the half-maximal inhibitory concentration (IC50) in experiment [3] was 301 to 1000 nM.

As for `C[C@H](Sc1nncn1C)c1ccnc(NC(=O)c2cc3c(C(F)(F)F)cccc3[nH]2)c1` [Compound 120, N-[4-[(1S)-1-[(4-methyl-1,2,4-triazol-3-yl)sulfanyl]ethyl]-2-pyridyl]-4-(trifluoromethyl)-1H-indole-2-carboxamide], in experiment [1], the fold induction at 0.3 µM lay in the range of 1.01 to 2.5, the fold induction at 1 µM was in the range of 1.01 to 2.5 and the fold induction at 4 µM lay in the range of 1.01 to 2.5. Also, in experiment [2], the fold induction at 0.3 µM is less than 1, the fold induction at 1 µM is less than 1 and the fold induction at 4 µM was less than 1. Also, the half-maximal inhibitory concentration (IC50) in experiment [3] lay within 100 to 300 nM.

In the case of `Cc1nc2cc([C@H](C)Sc3nncn3C)cc(NC(=O)c3cccc(C(F)(F)F)n3)c2o1` [Compound 130a, (S)-N-(2-methyl-5-(1-((4-methyl-4H-1,2,4-triazol-3-yl)thio)ethyl)benzo[d]oxazol-7-yl)-6-(trifluoromethyl)picolinamide], in experiment [1], the fold induction at 0.3 µM was 2.51 to 5, the fold induction at 1 µM lay within 5 to 7.5 and the fold induction at 4 µM was more than 7.5. In experiment [2], the fold induction at 0.3 µM fell in the range of 1.31 to 1.5, the fold induction at 1 µM is 1.51 to 1.75 and the fold induction at 4 µM is more than 1.76. Also, in experiment [3], the half-inhibitory concentration (IC50) is 301 to 1000 nM.

For `C[C@H](Sc1nncn1C)c1cccc(NC(=O)c2cc(C(=O)N3CC(O)C3)ccn2)c1` [Compound 148, (S)-4-(3-hydroxyazetidine-1-carbonyl)-N-(3-(1-((4-methyl-4H-1,2,4-triazol-3-yl)thio)ethyl)phenyl)picolinamide], in experiment [1], the fold induction at 0.3 µM is less than 1, the fold induction at 1 µM is less than 1 and the fold induction at 4 µM is less than 1. Further, in experiment [2], the fold induction at 0.3 µM was less than 1, the fold induction at 1 µM was less than 1 and the fold induction at 4 µM is less than 1. Also, the IC50 in experiment [3] lay within 301 to 1000 nM.

Regarding `C[C@H](Sc1nncn1C)c1cccc(NC(=O)c2cc(C(=O)N3C[C@H](O)C[C@@H]3C)ccn2)c1` [Compound 151, 4-((2S,4R)-4-hydroxy-2-methylpyrrolidine-1-carbonyl)-N-(3-((S)-1-((4-methyl-4H-1,2,4-triazol-3-yl)thio)ethyl)phenyl)picolinamide], in experiment [1], the fold induction at 0.3 µM is more than 7.5, the fold induction at 1 µM is more than 7.5 and the fold induction at 4 µM was more than 7.5. Besides, in experiment [2], the fold induction at 0.3 µM lay within 1.01 to 1.3, the fold induction at 1 µM is 1.01 to 1.3 and the fold induction at 4 µM was in the range of 1.01 to 1.3. Besides, the IC50 in experiment [3] is 301 to 1000 nM.

As to `C[C@H](Sc1nncn1C)c1cccc(N2Cc3c(cccc3C(F)(F)F)C2=O)c1` [Compound 166a, (S)-2-(3-(1-((4-methyl-4H-1,2,4-triazol-3-yl)thio)ethyl)phenyl)-4-(trifluoromethyl)isoindolin-1-one], in experiment [1], the fold induction at 0.3 µM is less than 1, the fold induction at 1 µM is less than 1 and the fold induction at 4 µM lay within 1.01 to 2.5. Further, in experiment [2], the fold induction at 0.3 µM is less than 1, the fold induction at 1 µM fell in the range of 1.01 to 1.3 and the fold induction at 4 µM lay within 1.01 to 1.3. For the same molecule, in experiment [3], the IC50 is 100 to 300 nM.

For `C[C@H](Sc1nncn1C)c1cccc(N2Cc3c(ccnc3Cl)C2=O)c1` [Compound 167, 4-chloro-2-[3-[(1S)-1-[(4-methyl-1,2,4-triazol-3-yl)sulfanyl]ethyl]phenyl]-3H-pyrrolo[3,4-c]pyridin-1-one], in experiment [1], the fold induction at 0.3 µM lay within 1.01 to 2.5, the fold induction at 1 µM is less than 1 and the fold induction at 4 µM was 2.51 to 5. In addition, in experiment [2], the fold induction at 0.3 µM fell in the range of 1.51 to 1.75, the fold induction at 1 µM lay within 1.01 to 1.3 and the fold induction at 4 µM was more than 1.76. In addition, the 50% inhibitory concentration (IC50) in experiment [3] fell in the range of 301 to 1000 nM.

Turning to `CC(Sc1nncn1C)c1cc(F)cc(N2Cc3c(cccc3C(F)(F)F)C2=O)c1` [Compound 168, 2-[3-fluoro-5-[(1R)-1-[(4-methyl-1,2,4-triazol-3-yl)sulfanyl]ethyl]phenyl]-4-(trifluoromethyl)isoindolin-1-one], in experiment [1], the fold induction at 0.3 µM was 1.01 to 2.5, the fold induction at 1 µM lay within 1.01 to 2.5 and the fold induction at 4 µM was in the range of 1.01 to 2.5. Moreover, in experiment [2], the fold induction at 0.3 µM was less than 1, the fold induction at 1 µM was less than 1 and the fold induction at 4 µM lay in the range of 1.01 to 1.3. Besides, the half-maximal inhibitory concentration (IC50) in experiment [3] was in the range of 301 to 1000 nM.

Turning to `C[C@H](Sc1nncn1C)c1cc(F)cc(N2Cc3c(cccc3C(F)(F)F)C2=O)c1` [Compound 168a, 2-[3-fluoro-5-[(1S)-1-[(4-methyl-1,2,4-triazol-3-yl)sulfanyl]ethyl]phenyl]-4-(trifluoromethyl)isoindolin-1-one], in experiment [1], the fold induction at 0.3 µM is less than 1, the fold induction at 1 µM lay in the range of 1.01 to 2.5 and the fold induction at 4 µM was less than 1. Besides, in experiment [2], the fold induction at 0.3 µM lay in the range of 1.01 to 1.3, the fold induction at 1 µM is 1.01 to 1.3 and the fold induction at 4 µM was in the range of 1.01 to 1.3. The IC50 in experiment [3] was in the range of 100 to 300 nM.

`C[C@H](Sc1nncn1C)c1ccnc(N2Cc3c(cccc3C(F)(F)F)C2=O)c1` [Compound 172a, (S)-(4-(1-((4-methyl-4H-1,2,4-triazol-3-yl)thio)ethyl)pyridin-2-yl)-4-(trifluoromethyl)isoindolin-1-one]: in experiment [1], the fold induction at 0.3 µM is 2.51 to 5, the fold induction at 1 µM was in the range of 2.51 to 5 and the fold induction at 4 µM was in the range of 2.51 to 5. Further, in experiment [2], the fold induction at 0.3 µM is less than 1, the fold induction at 1 µM was less than 1 and the fold induction at 4 µM was less than 1. In addition, in experiment [3], the IC50 is 301 to 1000 nM.

For the molecule `C[C@H](Cc1nncn1C)c1cccc(NC(=O)c2cccc(S(C)(=O)=O)n2)c1` [Compound 185, (R)-N-(3-(1-(4-methyl-4H-1,2,4-triazol-3-yl)propan-2-yl)phenyl)-6-(methylsulfonyl)picolinamide], in experiment [1], the fold induction at 0.3 µM lay in the range of 1.01 to 2.5, the fold induction at 1 µM fell in the range of 1.01 to 2.5 and the fold induction at 4 µM lay within 2.51 to 5. Further, in experiment [2], the fold induction at 0.3 µM lay within 1.01 to 1.3, the fold induction at 1 µM was more than 1.76 and the fold induction at 4 µM is more than 1.76. For the same molecule, the IC50 in experiment [3] was 301 to 1000 nM.

As for `C[C@H](Cc1nncn1C)c1cccc(NC(=O)c2cc(C(C)(C)O)c(Cl)cn2)c1` [Compound 186, (R)-5-chloro-4-(2-hydroxypropan-2-yl)-N-(3-(1-(4-methyl-4H-1,2,4-triazol-3-yl)propan-2-yl)phenyl)picolinamide], in experiment [1], the fold induction at 0.3 µM is 2.51 to 5, the fold induction at 1 µM lay in the range of 1.01 to 2.5 and the fold induction at 4 µM lay within 5 to 7.5. For the same molecule, in experiment [2], the fold induction at 0.3 µM fell in the range of 1.01 to 1.3, the fold induction at 1 µM lay within 1.31 to 1.5 and the fold induction at 4 µM was more than 1.76. The half-inhibitory concentration (IC50) in experiment [3] fell in the range of 301 to 1000 nM.

On to `C[C@H](Cc1nncn1C)c1cccc(NC(=O)c2ccnc(C(F)(F)F)n2)c1` [Compound 187, (R)-N-(3-(1-(4-methyl-4H-1,2,4-triazol-3-yl)propan-2-yl)phenyl)-2-(trifluoromethyl)pyrimidine-4-carboxamide], for which, in experiment [1], the fold induction at 0.3 µM is 1.01 to 2.5, the fold induction at 1 µM was 2.51 to 5 and the fold induction at 4 µM is more than 7.5. In experiment [2], the fold induction at 0.3 µM was in the range of 1.51 to 1.75, the fold induction at 1 µM was more than 1.76 and the fold induction at 4 µM was more than 1.76. Besides, the 50% inhibitory concentration (IC50) in experiment [3] was in the range of 100 to 300 nM.
